In test [1] the test system is MCF-7. Kind of test: Cell proliferation assay (CellTiter-Glo), MCF-7. The test is classed as cell-based. Conditions: Homo sapiens, MCF7; 72 h exposure; mean ± SD of two experiments. As for the experimental part:
(§1) Given the desirable enzyme activity profile, these compounds were further assayed for their antiproliferative activities against five independent human tumour cell line collections harbouring PIK3CA mutation, including human ovarian cancer cell line SKOV-3, human breast cancer T47D and MCF-7, human lung cancer H1975 and H460. […] In general, the cellular activity of tested derivatives corrected with their effects on kinase activity.
(§2) All target compounds were evaluated for antiproliferative potency against SKOV-3, T47D,NCI-H1975, NCI-H460,and MCF-7 tumour cell lines using a CellTiter-Glo® Luminescent Cell Viability Assay. The human tumour cell lines used were obtained from the ATCC or Shanghai ZhongQiaoXinZhou Biotech. All the mediums and FBS were Gibco. T47D, H1975 and NCI-H460 tumour cells were cultured in RPMI1640 medium supplemented with 10% FBS. SKOV-3 was cultured in McCoy’s 5 A medium supplemented with 10%FBS. The day before treatment with compounds, cells were seeded at a density of 2000 or 5000 in each well of a 96-well plate. The tumour cells were then treated with 3-fold serial diluted compound or DMSO control in the incubator at 37 °C and 5% CO2 for 3 days, prior to the addition of CellTiter-Glo reagents (Promega) and reading of luminescence using a PerkinElmer Envision plate reader. Data were analysed using GraphPad Prism 7.0.
(In general: ATP-based viability assays read luminescence as a measure of living cells.)

The subject of test [2] is T47D. The test is described as follows: Cell proliferation assay (CellTiter-Glo), T47D. The test is classed as cell-based. Conditions: Homo sapiens, 72 h exposure, mean ± SD of two experiments. As for the experimental part:
as §1, §2

Test [3] concerns SKOV-3. Kind of test: Cell proliferation assay (CellTiter-Glo), SKOV-3. To be noted: Homo sapiens, SK-OV-3; 72 h exposure; mean ± SD of two experiments. The test is classed as cell-based. How it is done: as §1, §2
The subject of test [4] is NCI-H460. The test is described as follows: Cell proliferation assay (CellTiter-Glo), NCI-H460. The test is classed as cell-based. Conditions: Homo sapiens, 72 h exposure, mean ± SD of two experiments. As for the experimental part:
as §1, §2

Test [5] concerns NCI-H1975. The test is described as follows: Cell proliferation assay (CellTiter-Glo), NCI-H1975. The test is classed as cell-based. Conditions: Homo sapiens, 72 h exposure, mean ± SD of two experiments. How it is done: as §1, §2
In test [6] the target is T1, PI3Kα (Homo sapiens, UniProt P42336).
T1 construct: purchased Invitrogen
The test is described as follows: In vitro PI3Kα enzymatic assay (ADP-Glo / Kinase-Glo, ATP 25 μM). The test is classed as biochemical. Conditions: for IC50: mean ± SD of two experiments; for inhibition at 10 µM / % Inhibition at 10 μM: mean ± SD of three determinations. How it is done:
To screen the inhibitory activity of the target compounds against PI3Kα, the Kinase-Glo™ assay with ATP at 25 μM was utilised with PIK-75 as positive control. We chose to explore the SARs at three positions on the Imidazo[1,2-a]pyridine core. To start with, a set of 8-position modifications were prepared while keeping the morpholinyl amide substituent on 2-position fixed, since it allowed quick structure − activity profiling via coupling reactions of bromide with aryl borates or boronic acids. […] We then turned our attention back to the phenyl substituents.
Briefly, the compound, PI3K enzyme (PI3Kα from Invitrogen), the PIP2 (Life Technologies) substrate, and ATP (25 μM, Sigma) were diluted in kinase buffer to the indicated concentrations. The assay plate was covered and incubated at room temperature for 1 h. Then, the Kinase-Glo reagent (Promega) was added to the PI3Kα plate to stop the reaction, mixed briefly with centrifuge, shaken slowly on the shaker and then equilibrate for 120 min. Finally, add Kinase detection reagent to each well, shake 1 min, equilibrate for 30 min before reading on a plate reader for luminescence. The data were collected on Envision and presented in Excel. IC50 values were calculated from the inhibition curves.
(ADP-Glo first removes unused ATP, then detects ADP through luciferase.)

Setting [7] is: PI3Kα, compound 10 μM, ATP 25 μM, read-out: % Inhibition at 10 μM.
Setting [8] is: PI3Kα, compound 10 μM, ATP 25 μM.

Where two headings read alike, the source gives them in different places. Bounds are passed on as bounds.

T1 sequence (P42336 whole entry): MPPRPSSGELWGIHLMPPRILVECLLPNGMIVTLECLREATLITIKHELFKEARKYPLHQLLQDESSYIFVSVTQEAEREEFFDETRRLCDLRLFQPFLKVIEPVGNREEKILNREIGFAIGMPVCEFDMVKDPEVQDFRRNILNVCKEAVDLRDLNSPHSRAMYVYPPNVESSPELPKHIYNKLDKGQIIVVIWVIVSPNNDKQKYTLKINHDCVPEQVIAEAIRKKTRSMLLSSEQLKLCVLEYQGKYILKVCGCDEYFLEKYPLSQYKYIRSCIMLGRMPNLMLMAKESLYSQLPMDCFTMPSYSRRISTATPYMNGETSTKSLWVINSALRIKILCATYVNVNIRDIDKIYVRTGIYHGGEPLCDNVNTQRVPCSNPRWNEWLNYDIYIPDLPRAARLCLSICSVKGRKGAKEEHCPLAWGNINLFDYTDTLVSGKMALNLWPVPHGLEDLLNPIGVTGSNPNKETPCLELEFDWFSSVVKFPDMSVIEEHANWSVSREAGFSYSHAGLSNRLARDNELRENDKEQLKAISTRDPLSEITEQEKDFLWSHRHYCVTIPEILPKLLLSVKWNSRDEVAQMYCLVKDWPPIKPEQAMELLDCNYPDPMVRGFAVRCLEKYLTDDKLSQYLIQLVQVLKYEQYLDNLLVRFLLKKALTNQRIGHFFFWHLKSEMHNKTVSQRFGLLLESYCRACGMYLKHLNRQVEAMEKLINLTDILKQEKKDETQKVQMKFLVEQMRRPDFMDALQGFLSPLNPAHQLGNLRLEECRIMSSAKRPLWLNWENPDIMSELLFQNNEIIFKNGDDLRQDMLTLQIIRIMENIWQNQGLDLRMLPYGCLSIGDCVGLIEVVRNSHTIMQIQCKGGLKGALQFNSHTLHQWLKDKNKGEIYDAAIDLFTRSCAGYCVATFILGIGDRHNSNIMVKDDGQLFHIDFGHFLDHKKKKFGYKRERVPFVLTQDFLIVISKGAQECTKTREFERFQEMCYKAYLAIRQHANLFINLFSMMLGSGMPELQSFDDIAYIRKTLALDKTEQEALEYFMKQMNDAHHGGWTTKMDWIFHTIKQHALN
T1 sequence (P27986 whole entry partner): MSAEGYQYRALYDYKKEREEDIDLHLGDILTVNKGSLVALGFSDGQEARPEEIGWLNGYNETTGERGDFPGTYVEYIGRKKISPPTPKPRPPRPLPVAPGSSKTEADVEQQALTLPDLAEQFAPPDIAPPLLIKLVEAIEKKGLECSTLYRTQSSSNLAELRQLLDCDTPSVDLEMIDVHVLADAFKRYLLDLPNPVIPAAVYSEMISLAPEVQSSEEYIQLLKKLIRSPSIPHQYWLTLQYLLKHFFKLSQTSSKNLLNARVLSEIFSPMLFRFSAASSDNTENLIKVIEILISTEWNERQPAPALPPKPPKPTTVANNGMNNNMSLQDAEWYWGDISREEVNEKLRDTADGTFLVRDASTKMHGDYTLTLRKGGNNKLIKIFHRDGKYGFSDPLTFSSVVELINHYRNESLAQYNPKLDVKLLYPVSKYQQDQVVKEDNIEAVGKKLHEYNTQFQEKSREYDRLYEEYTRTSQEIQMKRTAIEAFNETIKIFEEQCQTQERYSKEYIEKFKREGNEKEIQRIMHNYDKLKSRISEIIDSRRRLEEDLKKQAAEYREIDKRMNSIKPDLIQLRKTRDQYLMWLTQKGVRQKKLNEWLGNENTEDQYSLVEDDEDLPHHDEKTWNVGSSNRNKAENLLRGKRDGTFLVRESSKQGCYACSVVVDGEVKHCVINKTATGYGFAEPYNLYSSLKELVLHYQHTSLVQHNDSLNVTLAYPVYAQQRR

Take `Cc1nc(NC(=O)N2CCC[C@H]2C(N)=O)sc1-c1ccnc(C(C)(C)C(F)(F)F)c1` [Alpelisib, reference compound]: the IC50 – broadly, the point on the concentration scale where inhibition reaches its midpoint – is 2.2 ± 0.3 µM in test [1]; 0.46 ± 0.05 µM in test [2]; 9.7 ± 0.7 µM in test [3]; 8.9 ± 0.7 µM in test [4]; 2.7 ± 0.2 µM in test [5].
For the molecule `COc1ncc(-c2cc(C)cn3cc(C(=O)N4CCCC4)nc23)cc1NS(=O)(=O)c1ccc(F)cc1F` [Compound 36, 2,4-Difluoro-N-(2-methoxy-5–(6-methyl-2-(pyrrolidine-1-carbonyl)Imidazo[1,2-a]pyridin-8-yl)pyridin-3-yl)benzenesulfonamide], the IC50 was 8.1 ± 0.8 µM in test [1]; 15.9 ± 1.5 µM in test [2]; 35.3 ± 4.2 µM in test [3]; 1.12 ± 0.15 µM in test [6] (ATP 25 μM); 30.2 ± 3.1 µM in test [4]; above 50 µM in test [5]. For the same molecule, the inhibition (as a rule, how much of the control response was suppressed) at 10 µM in test [6] (setting [7]) was above 85%.
Turning to `COc1ncc(-c2cc(C)cn3cc(C(=O)NCCN4CCOCC4)nc23)cc1NS(=O)(=O)c1ccc(F)cc1` [Compound 40, 8–(5-((4-Fluorophenyl)sulfonamido)-6-methoxypyridin-3-yl)-6-methyl-N-(2-morpholinoethyl)Imidazo[1,2-a]pyridine-2-carboxamide], the concentration for half-maximal inhibition (IC50) in test [1] came out at 7.6 ± 0.5 µM; in test [2], 12.5 ± 1.8 µM; in test [3], 25.5 ± 3.9 µM; in test [6] (ATP 25 μM), 0.5 ± 0.11 µM; in test [4] it was 21.8 ± 1.9 µM; in test [5], 41.4 ± 3.4 µM. Also, the inhibition at 10 µM in test [6] (setting [7]) was above 85%.
Turning to `COc1ncc(-c2cccn3cc(C(=O)N4CCC(C)CC4)nc23)cc1NS(=O)(=O)c1ccc(F)cc1` [Compound 46, 4-Fluoro-N-(2-methoxy-5–(2-(4-methylpiperidine-1-carbonyl)Imidazo[1,2-a]pyridin-8-yl)pyridin-3-yl)benzenesulfonamide], the inhibition at 10 µM in test [6] (setting [7]) turned out to be 40.2 ± 3%.
On to `Cc1ccc([N+](=O)[O-])cc1S(=O)(=O)N(C)/N=C/c1cnc2ccc(Br)cn12` [PIK-75, reference compound], for which the inhibition at 10 µM in test [6] (read-out: % Inhibition at 10 μM, PI3Kα, compound 10 μM, ATP 25 μM) was determined as 98.2 ± 1.6%.
For “(6-Methyl-8–(3-(morpholinosulfonyl)phenyl)Imidazo[1,2-a]pyridin-2-yl)(pyrrolidin-1-yl)methanone [Compound 27]”, the % Inhibition (commonly how much of the control response was suppressed) at 10 μM in test [6] (setting [8]) is 60.9 ± 6.0%.
“N,N-Diethyl-3–(6-methyl-2-(morpholine-4-carbonyl)Imidazo[1,2-a]pyridin-8-yl)benzenesulfonamide [Compound 19]”: the “% Inhibition at 10 μM” value in test [6] (setting [8]) is 58.5 ± 1.6%.
“N,N-Diethyl-3–(6-methyl-2–(4-methylpiperidine-1-carbonyl)Imidazo[1,2-a]pyridin-8-yl)benzenesulfonamide [Compound 32]”: in test [6] (setting [8]), the “% Inhibition at 10 μM” value is on record as 50.6 ± 0.9%.

The values are drawn from publication PMC9858543, “Design, synthesis and evaluation of 2, 6, 8-substituted Imidazopyridine derivatives as potent PI3Kα inhibitors” (Journal of Enzyme Inhibition and Medicinal Chemistry, 2023).
